Results: patent publication US12377175B2, “Trifunctional constructs with tunable pharmacokinetics useful in imaging and anti-tumor therapies” (Cornell University, priority 2016, dated 2025)
“And” between values parts separate entries of the source, which are not always exact repeats. Equal entries are not always repeated.

Test system: LNCaP xenograft tumor-bearing mice
Assay: Biodistribution of 225Ac-macropa-RPS-070 in LNCaP xenograft mice
Type: in vivo, mouse
Conditions: for Organ distribution, Blood, Mean / Organ distribution, Bone, Mean / Organ distribution, Heart, Mean / Organ distribution, Kidneys, Mean / Organ distribution, Large Intestine, Mean / Organ distribution, Liver, Mean / Organ distribution, Lungs, Mean / Organ distribution, Muscle, Mean / Organ distribution, Pancreas, Mean / Organ distribution, Small Intestine, Mean / Organ distribution, Spleen, Mean / Organ distribution, Stomach, Mean / Organ distribution, Tumor, Mean: n = 5
Procedure: Cell Culture. […] Cell culture supplies were from Invitrogen unless otherwise noted.
Inoculation of Mice with Xenografts. All animal studies were approved by the Institutional Animal Care and Use Committee of Weill Cornell Medicine and were undertaken in accordance with the guidelines set forth by the USPHS Policy on Humane Care and Use of Laboratory Animals. Animals were housed under standard conditions in approved facilities with 12 h light/dark cycles. Food and water was provided ad libitum throughout the course of the studies. Hairless male nu/nu mice were purchased from the Jackson Laboratory. For inoculation in mice, LNCaP cells were suspended at 4×10^7 cells/mL in a 1:1 mixture of PBS:Matrigel (BD Biosciences). Each mouse was injected in the left flank with 0.25 mL of the cell suspension. Biodistributions were conducted when tumors were in the range 100-400 mm^3.
Biodistribution of […] in LNCaP xenograft mice. Fifteen LNCaP xenograft tumor-bearing mice (5 per time point) were injected intravenously with a bolus injection of 85-95 kBq and 100 ng ([…]) of each ligand. The mice were sacrificed by cervical dislocation at 4, 24 and 96 h post injection. A blood sample was removed, and a full biodistribution study was conducted on the following organs (with contents): heart, lungs, liver, small intestine, large intestine, stomach, spleen, pancreas, kidneys, muscle, bone, and tumor. Tissues were weighed and counted on a 2470 Wizard Automatic Gamma Counter (Perkin Elmer). 1% ID/mL samples were counted prior to and following each set of tissue samples to enable decay correction to be undertaken. Counts were corrected for decay and for activity injected, and tissue uptake was expressed as percent injected dose per gram (% ID/g). Standard error measurement was calculated for each data point.

## O=C(O)CC[C@H](NC(=O)N[C@@H](CCCCNC(=O)Nc1cccc(-c2cn(CCOCCOCCOCCOCCOCCOCCC(=O)N[C@@H](CCCCNC(=S)Nc3cc(CN4CCOCCOCCN(Cc5cccc(C(=O)[O-])n5)CCOCCOCC4)nc(C(=O)[O-])c3)C(=O)N[C@@H](CCCCNC(=O)Cc3ccc(I)cc3)C(=O)O)nn2)c1)C(=O)O)C(=O)O.[225Ac+3] [225Ac-macropa-RPS-070]
4 h after i.v. injection
  Organ distribution, Blood, individual mice 1-5: 0.9065 % ID/g and 0.5525 % ID/g and 1.118 % ID/g and 0.8276 % ID/g and 0.6564 % ID/g
  Organ distribution, Bone, individual mice 1-5: 1.149 % ID/g and 1.123 % ID/g and 1.487 % ID/g and 0.9204 % ID/g and 1.155 % ID/g
  Organ distribution, Heart, individual mice 1-5: 0.7576 % ID/g and 0.6532 % ID/g and 0.774 % ID/g and 0.7515 % ID/g and 0.6565 % ID/g
  Organ distribution, Kidneys, individual mice 1-5: 65.5884 % ID/g and 20.5274 % ID/g and 108.233 % ID/g and 33.654 % ID/g and 33.0707 % ID/g
  Organ distribution, Large Intestine, individual mice 1-5: 1.363 % ID/g and 0.6516 % ID/g and 1.274 % ID/g and 0.9166 % ID/g and 0.819 % ID/g
  Organ distribution, Liver, individual mice 1-5: 1.622 % ID/g and 1.346 % ID/g and 1.742 % ID/g and 1.681 % ID/g and 1.3957 % ID/g
  Organ distribution, Lungs, individual mice 1-5: 0.9956 % ID/g and 0.6067 % ID/g and 1.2979 % ID/g and 0.9859 % ID/g and 0.8866 % ID/g
  Organ distribution, Muscle, individual mice 1-5: 0.6801 % ID/g and 0.8058 % ID/g and 0.7282 % ID/g and 0.6767 % ID/g and 0.6562 % ID/g
  Organ distribution, Pancreas, individual mice 1-5: 0.5549 % ID/g and 0.4164 % ID/g and 0.5532 % ID/g and 0.4675 % ID/g and 0.6604 % ID/g
  Organ distribution, Small Intestine, individual mice 1-5: 0.1998 % ID/g and 0.1628 % ID/g and 0.3104 % ID/g and 0.2441 % ID/g and 0.1709 % ID/g
  Organ distribution, Spleen, individual mice 1-5: 1.409 % ID/g and 0.708 % ID/g and 1.613 % ID/g and 1.108 % ID/g and 0.8756 % ID/g
  Organ distribution, Stomach, individual mice 1-5: 0.3396 % ID/g and 0.2471 % ID/g and 0.3042 % ID/g and 0.4109 % ID/g and 0.2122 % ID/g
  Organ distribution, Tumor, individual mice 1-5: 6.732 % ID/g and 10.7309 % ID/g and 23.8367 % ID/g and 15.3682 % ID/g and 7.504 % ID/g
  Organ distribution, Blood, Mean: 0.8122 % ID/g
  Organ distribution, Bone, Mean: 1.167 % ID/g
  Organ distribution, Heart, Mean: 0.7189 % ID/g
  Organ distribution, Kidneys, Mean: 52±16 % ID/g and 52.2146 % ID/g
  Organ distribution, Large Intestine, Mean: 1.005 % ID/g
  Organ distribution, Liver, Mean: 1.557 % ID/g
  Organ distribution, Lungs, Mean: 0.9469 % ID/g
  Organ distribution, Muscle, Mean: 0.7094 % ID/g
  Organ distribution, Pancreas, Mean: 0.5305 % ID/g
  Organ distribution, Small Intestine, Mean: 0.2176 % ID/g
  Organ distribution, Spleen, Mean: 1.143 % ID/g
  Organ distribution, Stomach, Mean: 0.3028 % ID/g
  Organ distribution, Tumor, Mean: 13±3 % ID/g and 12.8342 % ID/g
24 h after i.v. injection
  Organ distribution, Blood, individual mice 1-5: 0.3483 % ID/g and 0.3132 % ID/g and 0.2208 % ID/g and 0.2945 % ID/g and 0.277 % ID/g
  Organ distribution, Bone, individual mice 1-5: 1.273 % ID/g and 1.066 % ID/g and 0.8394 % ID/g and 1.006 % ID/g and 0.6976 % ID/g
  Organ distribution, Heart, individual mice 1-5: 0.5226 % ID/g and 0.5633 % ID/g and 0.4521 % ID/g and 0.4791 % ID/g and 0.4648 % ID/g
  Organ distribution, Kidneys, individual mice 1-5: 4.988 % ID/g and 4.257 % ID/g and 3.946 % ID/g and 3.665 % ID/g and 4.103 % ID/g
  Organ distribution, Large Intestine, individual mice 1-5: 0.133 % ID/g and 0.1259 % ID/g and 0.1325 % ID/g and 0.1343 % ID/g and 0.1318 % ID/g
  Organ distribution, Liver, individual mice 1-5: 1.578 % ID/g and 1.476 % ID/g and 1.138 % ID/g and 1.143 % ID/g and 1.485 % ID/g
  Organ distribution, Lungs, individual mice 1-5: 0.5378 % ID/g and 0.4508 % ID/g and 0.4608 % ID/g and 0.4286 % ID/g and 0.4483 % ID/g
  Organ distribution, Muscle, individual mice 1-5: 0.6119 % ID/g and 0.5149 % ID/g and 0.4483 % ID/g and 0.7803 % ID/g and 0.4458 % ID/g
  Organ distribution, Pancreas, individual mice 1-5: 0.3985 % ID/g and 0.3912 % ID/g and 0.5035 % ID/g and 0.3332 % ID/g and 0.3194 % ID/g
  Organ distribution, Small Intestine, individual mice 1-5: 0.08784 % ID/g and 0.09914 % ID/g and 0.08822 % ID/g and 0.09466 % ID/g and 0.1037 % ID/g
  Organ distribution, Spleen, individual mice 1-5: 0.6208 % ID/g and 0.6576 % ID/g and 0.6201 % ID/g and 0.5768 % ID/g and 0.5855 % ID/g
  Organ distribution, Stomach, individual mice 1-5: 0.1296 % ID/g and 0.1212 % ID/g and 0.1119 % ID/g and 0.1467 % ID/g and 0.1533 % ID/g
  Organ distribution, Tumor, individual mice 1-5: 11.6163 % ID/g and 9.269 % ID/g and 7.502 % ID/g and 4.414 % ID/g and 8.047 % ID/g
  Organ distribution, Blood, Mean: 0.2908 % ID/g
  Organ distribution, Bone, Mean: 0.9764 % ID/g
  Organ distribution, Heart, Mean: 0.4964 % ID/g
  Organ distribution, Kidneys, Mean: 4.192 % ID/g
  Organ distribution, Large Intestine, Mean: 0.1315 % ID/g
  Organ distribution, Liver, Mean: 1.364 % ID/g
  Organ distribution, Lungs, Mean: 0.4653 % ID/g
  Organ distribution, Muscle, Mean: 0.5603 % ID/g
  Organ distribution, Pancreas, Mean: 0.3891 % ID/g
  Organ distribution, Small Intestine, Mean: 0.09473 % ID/g
  Organ distribution, Spleen, Mean: 0.6122 % ID/g
  Organ distribution, Stomach, Mean: 0.1326 % ID/g
  Organ distribution, Tumor, Mean: 8.17 % ID/g
96 h after i.v. injection
  Organ distribution, Blood, individual mice 1-5: 0.1904 % ID/g and 0.1919 % ID/g and 0.1521 % ID/g and 0.1653 % ID/g and 0.2382 % ID/g
  Organ distribution, Bone, individual mice 1-5: 0.8639 % ID/g and 0.8687 % ID/g and 0.8383 % ID/g and 1.122 % ID/g and 0.8204 % ID/g
  Organ distribution, Heart, individual mice 1-5: 0.3994 % ID/g and 0.424 % ID/g and 0.4286 % ID/g and 0.4459 % ID/g and 0.456 % ID/g
  Organ distribution, Kidneys, individual mice 1-5: 1.303 % ID/g and 1.3239 % ID/g and 2.004 % ID/g and 1.399 % ID/g and 1.46 % ID/g
  Organ distribution, Large Intestine, individual mice 1-5: 0.04349 % ID/g and 0.09663 % ID/g and 0.04522 % ID/g and 0.04198 % ID/g and 0.03927 % ID/g
  Organ distribution, Liver, individual mice 1-5: 0.7941 % ID/g and 0.8144 % ID/g and 0.733 % ID/g and 0.7917 % ID/g and 0.7942 % ID/g
  Organ distribution, Lungs, individual mice 1-5: 0.3016 % ID/g and 0.5091 % ID/g and 0.4694 % ID/g and 0.3781 % ID/g and 0.3698 % ID/g
  Organ distribution, Muscle, individual mice 1-5: 0.3022 % ID/g and 0.5249 % ID/g and 0.2509 % ID/g and 0.2982 % ID/g and 0.2528 % ID/g
  Organ distribution, Pancreas, individual mice 1-5: 0.09848 % ID/g and 0.377 % ID/g and 0.3055 % ID/g and 0.3162 % ID/g and 0.3335 % ID/g
  Organ distribution, Small Intestine, individual mice 1-5: 0.04372 % ID/g and 0.0577 % ID/g and 0.03752 % ID/g and 0.04431 % ID/g and 0.04136 % ID/g
  Organ distribution, Spleen, individual mice 1-5: 0.4837 % ID/g and 0.394 % ID/g and 0.4426 % ID/g and 0.4348 % ID/g and 0.5397 % ID/g
  Organ distribution, Stomach, individual mice 1-5: 0.03442 % ID/g and 0.04708 % ID/g and 0.03448 % ID/g and 0.02845 % ID/g and 0.02366 % ID/g
  Organ distribution, Tumor, individual mice 1-5: 4.043 % ID/g and 4.078 % ID/g and 6.74 % ID/g and 4.581 % ID/g and 4.845 % ID/g
  Organ distribution, Blood, Mean: 0.1876 % ID/g
  Organ distribution, Bone, Mean: 0.9027 % ID/g
  Organ distribution, Heart, Mean: 0.4333 % ID/g
  Organ distribution, Kidneys, Mean: 1.4978 % ID/g
  Organ distribution, Large Intestine, Mean: 0.05332 % ID/g
  Organ distribution, Liver, Mean: 0.7855 % ID/g
  Organ distribution, Lungs, Mean: 0.4056 % ID/g
  Organ distribution, Muscle, Mean: 0.3258 % ID/g
  Organ distribution, Pancreas, Mean: 0.2861 % ID/g
  Organ distribution, Small Intestine, Mean: 0.04492 % ID/g
  Organ distribution, Spleen, Mean: 0.459 % ID/g
  Organ distribution, Stomach, Mean: 0.03362 % ID/g
  Organ distribution, Tumor, Mean: 4.857 % ID/g
96 h post injection
  uptake by other organs (other than kidneys and tumor): < 1 % ID/g

## O=C(O)CC[C@H](NC(=O)N[C@@H](CCCCNC(=O)Nc1cccc(-c2cn(CCOCCOCCOCCOCCOCCOCCC(=O)N[C@@H](CCCCNC(=S)Nc3cc(CN4CCOCCOCCN(Cc5cccc(C(=O)O)n5)CCOCCOCC4)nc(C(=O)O)c3)C(=O)N[C@@H](CCCCNC(=O)Cc3ccc(I)cc3)C(=O)O)nn2)c1)C(=O)O)C(=O)O [macropa-RPS-070, (((S)-1-Carboxy-5-(3-(3-(1-((23S,26S)-26-carboxy-23-(4-(3-(2-carboxy-6-((16-((6-carboxypyridin-2-yl)methyl)-1,4,10,13-tetraoxa-7,16-diazacyclooctadecan-7-yl)methyl)pyridin-4-yl)thioureido)butyl)-33-(4-iodophenyl)-21,24,32-trioxo-3,6,9,12,15,18-hexaoxa-22,25,31-triazatritriacontyl)-1H-1,2,3-triazol-4-yl)phenyl)ureido)pentyl)carbamoyl)-L-glutamic acid]
4-96 h, no accumulation of 225Ac in liver, spleen, bone
  retention of 225Ac by the construct in vivo: stably retain
